# Source: PubChem BioAssay (NCI)
#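 Briefly, cells in 96-well plates were exposed to five compound concentrations for 48 h, and endpoints were estimated by linear interpolation. GI50 = concentration required for 50% inhibition of growth. At the TGI there is no net growth.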
# Legend:
# Experiment in all cases: DTP human tumour cell line panel, 48 h
# 786-0 renal = tested on: 786-0 renal
# A498 renal = tested on: A498 renal
# A549 NSCLC = tested on: A549 NSCLC
# ACHN renal = tested on: ACHN renal
# BT-549 breast = tested on: BT-549 breast
# CAKI-1 renal = tested on: CAKI-1 renal
# CCRF-CEM leukemia = tested on: CCRF-CEM leukemia
# COLO 205 colon = tested on: COLO 205 colon
# DU-145 prostate = tested on: DU-145 prostate
# HCC-2998 colon = tested on: HCC-2998 colon
# HCT-116 colon = tested on: HCT-116 colon
# HCT-15 colon = tested on: HCT-15 colon
# HL-60(TB) leukemia = tested on: HL-60(TB) leukemia
# HOP-62 NSCLC = tested on: HOP-62 NSCLC
# HS 578T breast = tested on: HS 578T breast
# HT29 colon = tested on: HT29 colon
# IGROV1 ovarian = tested on: IGROV1 ovarian
# K-562 leukemia = tested on: K-562 leukemia
# KM12 colon = tested on: KM12 colon
# M14 melanoma = tested on: M14 melanoma
# MALME-3M melanoma = tested on: MALME-3M melanoma
# MCF7 breast = tested on: MCF7 breast
# MDA-MB-231 breast = tested on: MDA-MB-231 breast
# MDA-MB-435 = tested on: MDA-MB-435
# MOLT-4 leukemia = tested on: MOLT-4 leukemia
# NCI-H226 lung = tested on: NCI-H226 lung
# NCI-H23 lung = tested on: NCI-H23 lung
# NCI-H460 lung = tested on: NCI-H460 lung
# NCI-H522 lung = tested on: NCI-H522 lung
# NCI/ADR-RES ovarian = tested on: NCI/ADR-RES ovarian
# OVCAR-3 ovarian = tested on: OVCAR-3 ovarian
# OVCAR-4 ovarian = tested on: OVCAR-4 ovarian
# OVCAR-5 ovarian = tested on: OVCAR-5 ovarian
# OVCAR-8 ovarian = tested on: OVCAR-8 ovarian
# PC-3 prostate = tested on: PC-3 prostate
# RPMI-8226 leukemia = tested on: RPMI-8226 leukemia
# RXF 393 renal = tested on: RXF 393 renal
# SF-268 CNS = tested on: SF-268 CNS
# SF-295 CNS = tested on: SF-295 CNS
# SF-539 CNS = tested on: SF-539 CNS
# SK-MEL-28 melanoma = tested on: SK-MEL-28 melanoma
# SK-MEL-5 melanoma = tested on: SK-MEL-5 melanoma
# SK-OV-3 ovarian = tested on: SK-OV-3 ovarian
# SN12C renal = tested on: SN12C renal
# SNB-19 CNS = tested on: SNB-19 CNS
# SNB-75 CNS = tested on: SNB-75 CNS
# SR leukemia = tested on: SR leukemia
# SW-620 colon = tested on: SW-620 colon
# T-47D breast = tested on: T-47D breast
# TK-10 renal = tested on: TK-10 renal
# UACC-257 melanoma = tested on: UACC-257 melanoma
# UACC-62 melanoma = tested on: UACC-62 melanoma
# UO-31 renal = tested on: UO-31 renal
smiles,measurement,setting,value
FC(F)(F)c1ccc(-c2cnc(Cl)nc2NC2CCCCCC2)cc1,GI50,786-0 renal,> 100 µM
same,TGI,786-0 renal,> 100 µM
same,GI50,A498 renal,> 100 µM
same,TGI,A498 renal,> 100 µM
same,GI50,A549 NSCLC,> 100 µM
same,TGI,A549 NSCLC,> 100 µM
same,GI50,ACHN renal,> 100 µM
same,TGI,ACHN renal,> 100 µM
same,GI50,BT-549 breast,> 100 µM
same,TGI,BT-549 breast,> 100 µM
same,GI50,CAKI-1 renal,57.4 µM
same,TGI,CAKI-1 renal,> 100 µM
same,GI50,CCRF-CEM leukemia,27.9 µM
same,TGI,CCRF-CEM leukemia,> 100 µM
same,GI50,COLO 205 colon,95.5 µM
same,TGI,COLO 205 colon,> 100 µM
same,GI50,DU-145 prostate,> 100 µM
same,TGI,DU-145 prostate,> 100 µM
same,GI50,HCC-2998 colon,> 100 µM
same,TGI,HCC-2998 colon,> 100 µM
same,GI50,HCT-116 colon,35.5 µM
same,TGI,HCT-116 colon,> 100 µM
same,GI50,HCT-15 colon,> 100 µM
same,TGI,HCT-15 colon,> 100 µM
same,GI50,HL-60(TB) leukemia,24.9 µM
same,TGI,HL-60(TB) leukemia,> 100 µM
same,GI50,HOP-62 NSCLC,> 100 µM
same,TGI,HOP-62 NSCLC,> 100 µM
same,GI50,HS 578T breast,> 100 µM
same,TGI,HS 578T breast,> 100 µM
same,GI50,HT29 colon,71.1 µM
same,TGI,HT29 colon,> 100 µM
same,GI50,IGROV1 ovarian,> 100 µM
same,TGI,IGROV1 ovarian,> 100 µM
same,GI50,K-562 leukemia,54.1 µM
same,TGI,K-562 leukemia,> 100 µM
same,GI50,KM12 colon,97.1 µM
same,TGI,KM12 colon,> 100 µM
same,GI50,M14 melanoma,> 100 µM
same,TGI,M14 melanoma,> 100 µM
same,GI50,MALME-3M melanoma,> 100 µM
same,TGI,MALME-3M melanoma,> 100 µM
same,GI50,MCF7 breast,31.2 µM
same,TGI,MCF7 breast,> 100 µM
same,GI50,MDA-MB-231 breast,36.4 µM
same,TGI,MDA-MB-231 breast,> 100 µM
same,GI50,MDA-MB-435,> 100 µM
same,TGI,MDA-MB-435,> 100 µM
same,GI50,MOLT-4 leukemia,32.7 µM
same,TGI,MOLT-4 leukemia,> 100 µM
same,GI50,NCI-H226 lung,> 100 µM
same,TGI,NCI-H226 lung,> 100 µM
same,GI50,NCI-H23 lung,61.1 µM
same,TGI,NCI-H23 lung,> 100 µM
same,GI50,NCI-H460 lung,73.1 µM
same,TGI,NCI-H460 lung,> 100 µM
same,GI50,NCI-H522 lung,45.4 µM
same,TGI,NCI-H522 lung,> 100 µM
same,GI50,NCI/ADR-RES ovarian,> 100 µM
same,TGI,NCI/ADR-RES ovarian,> 100 µM
same,GI50,OVCAR-3 ovarian,> 100 µM
same,TGI,OVCAR-3 ovarian,> 100 µM
same,GI50,OVCAR-4 ovarian,38.7 µM
same,TGI,OVCAR-4 ovarian,> 100 µM
same,GI50,OVCAR-5 ovarian,> 100 µM
same,TGI,OVCAR-5 ovarian,> 100 µM
same,GI50,OVCAR-8 ovarian,> 100 µM
same,TGI,OVCAR-8 ovarian,> 100 µM
same,GI50,PC-3 prostate,28.7 µM
same,TGI,PC-3 prostate,> 100 µM
same,GI50,RPMI-8226 leukemia,8.03 µM
same,TGI,RPMI-8226 leukemia,> 100 µM
same,GI50,RXF 393 renal,> 100 µM
same,TGI,RXF 393 renal,> 100 µM
same,GI50,SF-268 CNS,> 100 µM
same,TGI,SF-268 CNS,> 100 µM
same,GI50,SF-295 CNS,69.7 µM
same,TGI,SF-295 CNS,> 100 µM
same,GI50,SF-539 CNS,> 100 µM
same,TGI,SF-539 CNS,> 100 µM
same,GI50,SK-MEL-28 melanoma,> 100 µM
same,TGI,SK-MEL-28 melanoma,> 100 µM
same,GI50,SK-MEL-5 melanoma,62.8 µM
same,TGI,SK-MEL-5 melanoma,> 100 µM
same,GI50,SK-OV-3 ovarian,> 100 µM
same,TGI,SK-OV-3 ovarian,> 100 µM
same,GI50,SN12C renal,> 100 µM
same,TGI,SN12C renal,> 100 µM
same,GI50,SNB-19 CNS,> 100 µM
same,TGI,SNB-19 CNS,> 100 µM
same,GI50,SNB-75 CNS,80.6 µM
same,TGI,SNB-75 CNS,> 100 µM
same,GI50,SR leukemia,38.9 µM
same,TGI,SR leukemia,> 100 µM
same,GI50,SW-620 colon,> 100 µM
same,TGI,SW-620 colon,> 100 µM
same,GI50,T-47D breast,19.1 µM
same,TGI,T-47D breast,> 100 µM
same,GI50,TK-10 renal,> 100 µM
same,TGI,TK-10 renal,> 100 µM
same,GI50,UACC-257 melanoma,> 100 µM
same,TGI,UACC-257 melanoma,> 100 µM
same,GI50,UACC-62 melanoma,> 100 µM
same,TGI,UACC-62 melanoma,> 100 µM
same,GI50,UO-31 renal,> 100 µM
same,TGI,UO-31 renal,> 100 µM
